In US11065259B2, “Methods of treating pruritus” (Duke University, priority 2014, dated 2021):

Test system: pruritus (itch)
Experiment: Topical administration to human subjects with psoriasis-associated pruritus
Type: in vivo
Conditions: person
Experimental: The efficacy of Manganese ortho tetrakis(N-n-butoxyethylpyridinium-2-yl)porphyrin (MnTnBuOE-2-PyP^5+) in treating pruritus (itch) when topically applied was evaluated in a person with large areas of moderately severe plaque-forming psoriasis on upper and lower portions of both legs, with each involved area being approximately 10-20 cm in diameter. These lesions were markedly excoriated with intense, persistent symptoms of pruritus. MnTnBuOE-2-PyP^5+ was formulated in Lipoderm at 0.01% and 0.1% concentrations producing a light brown cream which was applied b.i.d. to lesions on one extremity. Symptoms of pruritus were relieved within 10 to 15 minutes after topical application of MnTnBuOE-2-PyP^5+ and remained under control for several hours.
A second subject with psoriatic involvement of the scalp of moderate severity and associated with marked pruritus and scratching was topically treated with MnTnBuOE-2-PyP^5+ 0.1% in Lipoderm twice daily for 3 weeks.

[1] = plaque-forming psoriasis on both legs, 0.01% and 0.1% in Lipoderm, topical b.i.d.
[2] = psoriatic involvement of the scalp, 0.1% in Lipoderm, topical twice daily for 3 weeks

Q: “Manganese ortho tetrakis(N-n-butoxyethylpyridinium-2-yl)porphyrin [MnTnBuOE-2-PyP^5+]” was tested. Which “time after topical application until symptoms of pruritus were relieved” value [1] did it give?
A: 10 to 15 min

Q: And the “time symptoms of pruritus remained under control” value [1]?
A: several hours

Q: And the “comparison of efficacy of 0.01% and 0.1% concentrations” value (plaque-forming psoriasis on both legs, lesions treated with 0.01% vs 0.1% in Lipoderm)?
A: Equivalent efficacy

Q: And the “effect of repeat application on pruritus” value (plaque-forming psoriasis on both legs, repeat topical application in Lipoderm)?
A: consistently reduced pruritus without tachyphylaxis

Q: And the “resolution of pruritic symptoms” value [2]?
A: completely effective in resolving pruritic symptoms

Q: What about the “time after application until symptoms of pruritus were relieved” value [2] of the same substance?
A: within minutes

Q: And the “time symptoms of pruritus remained under control” value [2]?
A: up to 12 hours
